Test: Measurement of the gel–sol transition temperature (Tgel), vial inversion method
Assay type: physicochemical
Conditions: hydrogel at CGC (0.19 wt%), 200 mM HEPES–NaOH buffer (pH 8.0), oil bath 25 to 85 °C, 1 °C/step, 1 min per step
Procedure: The gel–sol phase transition behaviour of the βGal–AAC–C6–F3 hydrogel (0.19 wt% (CGC) in 200 mM HEPES–NaOH buffer (pH 8.0)) was determined using the vial inversion method. The inverted gel in the vial was placed in an oil bath, which was heated from 25 °C to 85 °C, at a rate of 1 °C/step. The vial was immersed at each temperature for 1 min to equilibrate. The temperature, at which the sample completely dissolved, was defined as the Tgel value of the gel.

Tgel (gel-to-sol phase transition temperature): 78 °C
Structure (SMILES): O=C(CCCCCCN1C(=O)C(Cl)=C(Nc2ccc(O[C@@H]3O[C@H](CO)[C@H](O)[C@H](O)[C@H]3O)cc2)C1=O)N[C@@H](Cc1ccccc1)C(=O)N[C@@H](Cc1ccccc1)C(=O)N[C@@H](Cc1ccccc1)C(=O)O [βGal–AAC–C6–F3]
